Measurements: US9339668B2, “Extract of aerial parts of oats harvested before ear emergence” (priority 2008, dated 2016)

Tested on: Prostaglandin PG6KF1α production in stimulated human keratinocyte
Test: Production of prostaglandin PG6KF1α induced at the keratinocyte by calcium ionophore A23187
Type: cell-based
Conditions: 10 μg/ml
From the text: Principle: The keratinocyte, the most represented cell at the epidermis, plays a significant role in initiating and modulating inflammatory reactions of the skin. With the model it is possible to determine in vitro the capabilities of various molecules of modulating the production of mediators stemming from the metabolism of arachidonic acid. Prostaglandin PG6KF1α is a stable metabolite of prostacyclin PGI2, a major metabolite produced by the stimulated human keratinocyte. An acetone extract of aerial parts of oats harvested before ear emergence and its fractions were evaluated on the production of this prostaglandin induced at the keratinocyte by the calcium ionophore A23187 (stimulating the cascade of arachidonic acid).

O=c1cc(-c2ccc(O)c(O)c2)oc2cc(O)c([C@@H]3O[C@H](CO)[C@@H](O)[C@H](O)[C@H]3OC3OC[C@@H](O)[C@@H](O)[C@@H]3O)c(O)c12 (stereo partly shown) [isoorientin-2″-O-arabinosyl]
inhibition of PG6KF1α production: 55%
